Measurements from PubChem BioAssay AID248 (DTP/NCI, 2004).
“And” between values parts separate entries of the source, which are not always exact repeats. Equal entries are not always repeated. Inconclusive results and toxic doses are left out. Rule as the data show it: active = T/C of 150% or more; inactive = T/C below 125%.

System: L1210 leukemia ip in BDF1 mice, survival T/C
Assay: NCI In Vivo Anticancer Drug Screen. Data for tumor model L1210 Leukemia (intraperitoneal) in B6D2F1 (BDF1) mice
Details: endpoint: mean survival time, higher = longer survival
Outline: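 Value reflects the ratio of survival in compound-treated mice to survival in vehicle-treated controls, with both groups carrying the same transplanted tumor.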

[1] = dose: 75.0 mg/kg/injection, schedule: Q01DX001 (ip), vehicle: saline
[2] = dose: 150.0 mg/kg/injection, schedule: Q01DX001 (ip), vehicle: saline
[3] = dose: 300.0 mg/kg/injection, schedule: Q01DX001 (ip), vehicle: saline
[4] = dose: 100.0 mg/kg/injection, schedule: Q01DX009 (ip), vehicle: Klucel (hydroxypropylcellulose) (HPC)
[5] = dose: 200.0 mg/kg/injection, schedule: Q01DX009 (ip), vehicle: Klucel (hydroxypropylcellulose) (HPC)
[6] = dose: 400.0 mg/kg/injection, schedule: Q01DX009 (ip), vehicle: Klucel (hydroxypropylcellulose) (HPC)
[7] = dose: 100.0 mg/kg/injection, schedule: Q01DX009 (ip), vehicle: saline
[8] = dose: 200.0 mg/kg/injection, schedule: Q01DX009 (ip), vehicle: saline
[9] = dose: 400.0 mg/kg/injection, schedule: Q01DX009 (ip), vehicle: saline
[10] = dose: 100.0 mg/kg/injection, schedule: Q04DX003 (ip), vehicle: saline with Tween-80
[11] = dose: 200.0 mg/kg/injection, schedule: Q04DX003 (ip), vehicle: saline with Tween-80
[12] = dose: 400.0 mg/kg/injection, schedule: Q04DX003 (ip), vehicle: saline with Tween-80
[13] = dose: 25.0 mg/kg/injection, schedule: Q01DX009 (ip), vehicle: Klucel (hydroxypropylcellulose) (HPC)
[14] = dose: 100.0 mg/kg/injection, schedule: Q04DX003 (ip), vehicle: Klucel (hydroxypropylcellulose) (HPC)
[15] = dose: 200.0 mg/kg/injection, schedule: Q04DX003 (ip), vehicle: Klucel (hydroxypropylcellulose) (HPC)
[16] = dose: 400.0 mg/kg/injection, schedule: Q04DX003 (ip), vehicle: Klucel (hydroxypropylcellulose) (HPC)

Measured: T/C

O=C1CC2(CCCCC2)CO1
inactive: dose: 0.78 mg/kg/injection, schedule: Q04DX003 (ip), vehicle: saline 100 % of control | dose: 1.56 mg/kg/injection, schedule: Q04DX003 (ip), vehicle: saline 100 % of control | dose: 3.12 mg/kg/injection, schedule: Q04DX003 (ip), vehicle: saline 103 % of control | dose: 6.25 mg/kg/injection, schedule: Q04DX003 (ip), vehicle: saline 103 % of control | dose: 12.5 mg/kg/injection, schedule: Q04DX003 (ip), vehicle: saline 92 % of control

O=S1(=O)C2CCCC1CCC2
inactive: dose: 10.0 mg/kg/injection, schedule: Q01DX001 (ip), vehicle: saline 98 % of control and 109 % of control | dose: 40.0 mg/kg/injection, schedule: Q01DX001 (ip), vehicle: saline 102 % of control | [1] 109 % of control | [2] 100 % of control | [3] 104 % of control

NC(=O)CCC(NC(=O)OCc1ccccc1)C(=O)O (stereo not given)
inactive: [4] 91 % of control | dose: 100.0 mg/kg/injection, schedule: Q04DX002 (ip), vehicle: Klucel (hydroxypropylcellulose) (HPC) 97 % of control | [5] 112 % of control | dose: 200.0 mg/kg/injection, schedule: Q04DX002 (ip), vehicle: Klucel (hydroxypropylcellulose) (HPC) 97 % of control | [6] 109 % of control | dose: 400.0 mg/kg/injection, schedule: Q04DX002 (ip), vehicle: Klucel (hydroxypropylcellulose) (HPC) 105 % of control

CCCCC(C=NCC(CCCC)(CCN1CCOCC1)c1cccc2ccccc12)(CCN1CCOCC1)c1cccc2ccccc12 (stereo not given)
inactive: [7] 100 % of control | [8] 96 % of control | [9] 88 % of control

COc1ccc(OC(=O)Nc2ccccc2[N+](=O)[O-])cc1
inactive: [10] 106 % of control | [11] 94 % of control | [12] 95 % of control

CC1(C)OC(CI)C(COS(C)(=O)=O)O1 (stereo not given)
inactive: [10] 114 % of control | dose: 115.0 mg/kg/injection, schedule: Q01DX001 (ip), vehicle: steriod suspending solution 97 % of control | dose: 173.0 mg/kg/injection, schedule: Q01DX001 (ip), vehicle: steriod suspending solution 90 % of control | [11] 105 % of control | [12] 111 % of control

CCCCC(CC)COC(OCC(CC)CCCC)C(OCC(CC)CCCC)OCC(CC)CCCC (stereo not given)
inactive: [7] 101 % of control | [10] 98 % of control | [8] 101 % of control | [11] 94 % of control | [9] 113 % of control | [12] 91 % of control

N#C/C(=N/O)c1ccccn1
inactive: [4] 96 % of control | [7] 100 % of control | [5] 100 % of control | [8] 107 % of control | [9] 92 % of control

CC(C)(C)c1cc(C[P+](c2ccc(Cl)cc2)(c2ccc(Cl)cc2)c2ccc(Cl)cc2)cc(C(C)(C)C)c1O
inactive: dose: 12.5 mg/kg/injection, schedule: Q01DX009 (ip), vehicle: Klucel (hydroxypropylcellulose) (HPC) 97 % of control | [13] 88 % of control | [14] 98 % of control | [15] 100 % of control

NS(=O)(=O)CCCCCCN1C(=O)c2ccccc2C1=O
inactive: [10] 91 % of control | [11] 93 % of control | [12] 93 % of control

CCCCCCCCCC(=O)NO
inactive: dose: 25.0 mg/kg/injection, schedule: Q04DX003 (ip), vehicle: saline 102 % of control | dose: 50.0 mg/kg/injection, schedule: Q04DX003 (ip), vehicle: saline 98 % of control | dose: 100.0 mg/kg/injection, schedule: Q01DX001 (ip), vehicle: other 97 % of control | [7] 87 % of control | [14] 93 % of control | dose: 100.0 mg/kg/injection, schedule: Q04DX003 (ip), vehicle: saline 86 % of control and 92 % of control | dose: 200.0 mg/kg/injection, schedule: Q01DX001 (ip), vehicle: other 97 % of control | [8] 98 % of control | [15] 93 % of control | dose: 200.0 mg/kg/injection, schedule: Q04DX003 (ip), vehicle: saline 88 % of control | dose: 400.0 mg/kg/injection, schedule: Q01DX001 (ip), vehicle: other 95 % of control | [16] 91 % of control | dose: 400.0 mg/kg/injection, schedule: Q04DX003 (ip), vehicle: saline 86 % of control

C=C(C/C(=C/S(C)=O)c1ccccc1)c1ccccc1 (stereo not given)
inactive: [1] 97 % of control | [2] 96 % of control | [3] 91 % of control

O=NN(CC(Cl)CN(N=O)C(=O)NC1CCCCC1)C(=O)NC1CCCCC1
inactive: dose: 8.0 mg/kg/injection, schedule: Q01DX001 (ip), vehicle: other 97 % of control | dose: 16.0 mg/kg/injection, schedule: Q01DX001 (ip), vehicle: other 108 % of control | dose: 31.0 mg/kg/injection, schedule: Q01DX001 (ip), vehicle: other 90 % of control | dose: 62.0 mg/kg/injection, schedule: Q01DX001 (ip), vehicle: other 100 % of control | dose: 125.0 mg/kg/injection, schedule: Q01DX001 (ip), vehicle: other 95 % of control | dose: 250.0 mg/kg/injection, schedule: Q01DX001 (ip), vehicle: other 92 % of control | dose: 500.0 mg/kg/injection, schedule: Q01DX001 (ip), vehicle: other 97 % of control | dose: 750.0 mg/kg/injection, schedule: Q01DX001 (ip), vehicle: other 102 % of control | dose: 1000.0 mg/kg/injection, schedule: Q01DX001 (ip), vehicle: other 102 % of control

OC(c1ccccc1)C1C(c2ccccc2)N1C1CCCCC1 (stereo not given)
inactive: [13] 97 % of control | dose: 50.0 mg/kg/injection, schedule: Q01DX009 (ip), vehicle: Klucel (hydroxypropylcellulose) (HPC) 96 % of control | [14] 101 % of control | [15] 98 % of control

NC(=S)N/N=C/c1ccc2c(c1)OCO2
inactive: [10] 95 % of control | [11] 103 % of control

Cc1ccc(Br)c([N+](=O)[O-])c1
inactive: dose: 22.2 mg/kg/injection, schedule: Q01DX001 (ip), vehicle: carboxymethylcellulose (CMC) 93 % of control | dose: 33.35 mg/kg/injection, schedule: Q01DX001 (ip), vehicle: carboxymethylcellulose (CMC) 93 % of control | dose: 50.0 mg/kg/injection, schedule: Q01DX001 (ip), vehicle: carboxymethylcellulose (CMC) 93 % of control | dose: 75.0 mg/kg/injection, schedule: Q01DX001 (ip), vehicle: carboxymethylcellulose (CMC) 110 % of control | dose: 100.0 mg/kg/injection, schedule: Q01DX001 (ip), vehicle: carboxymethylcellulose (CMC) 109 % of control | dose: 200.0 mg/kg/injection, schedule: Q01DX001 (ip), vehicle: carboxymethylcellulose (CMC) 115 % of control | dose: 400.0 mg/kg/injection, schedule: Q01DX001 (ip), vehicle: carboxymethylcellulose (CMC) 107 % of control

C(=C\n1ccnc1)/c1ccccc1
inactive: dose: 100.0 mg/kg/injection, schedule: Q04DX003 (ip), vehicle: gum acacia 97 % of control | dose: 200.0 mg/kg/injection, schedule: Q04DX003 (ip), vehicle: gum acacia 87 % of control

Cc1ccc(Cl)cc1NC(=O)/C=C/c1ccccc1
inactive: [4] 104 % of control | [5] 104 % of control | [6] 102 % of control

Cc1cc(Oc2nc(Cl)nc(C(Cl)(Cl)Cl)c2Cl)cc(C)c1N(C)C (tested in a mixture with another compound)
inactive: [14] 91 % of control | [15] 105 % of control

C=CCS(=O)(=O)c1ccccc1
inactive: [7] 106 % of control | [8] 98 % of control | [9] 101 % of control

Nc1nc(N)nc(-c2ccccc2N=NN2CCCC2)n1
inactive: [14] 105 % of control | [15] 98 % of control | [16] 95 % of control

COC(=O)c1cc(Cl)ccc1O
inactive: dose: 37.5 mg/kg/injection, schedule: Q04DX003 (ip), vehicle: Klucel (hydroxypropylcellulose) (HPC) 100 % of control | dose: 75.0 mg/kg/injection, schedule: Q04DX003 (ip), vehicle: Klucel (hydroxypropylcellulose) (HPC) 100 % of control | dose: 150.0 mg/kg/injection, schedule: Q04DX003 (ip), vehicle: Klucel (hydroxypropylcellulose) (HPC) 92 % of control

O=[N+]([O-])c1cc(S(=O)(=O)O)ccc1Cl
inactive: dose: 100.0 mg/kg/injection, schedule: Q04DX003 (ip), vehicle: carboxymethylcellulose (CMC) 100 % of control | [10] 98 % of control | dose: 200.0 mg/kg/injection, schedule: Q04DX003 (ip), vehicle: carboxymethylcellulose (CMC) 101 % of control | [11] 102 % of control | dose: 400.0 mg/kg/injection, schedule: Q04DX003 (ip), vehicle: carboxymethylcellulose (CMC) 97 % of control | [12] 101 % of control
